≈ marks a conversion by molar mass, not a printed value.
How the values were obtained:
Enterococcus faecium [1] = assay: Antibacterial activity against vancomycin-resistant Enterococcus faecium ATCC 700221 after 16 to 18 hrs by broth microdilution method; assay type: functional
[2] = tested on: Staphylococcus epidermidis; assay: Antibacterial activity against methicillin-resistant Staphylococcus epidermidis ATCC 35984 after 16 to 18 hrs by broth microdilution method; assay type: functional
Staphylococcus aureus [3] = assay: Antibiofilm activity against methicillin-resistant Staphylococcus aureus isolate 2 after 24 hrs by calgary biofilm device-based assay; assay type: functional
[4] = Hemolytic activity in human RBC at 200 uM after 1 hr relative to control; assay type: ADME, cell-based, Erythrocyte; details: red blood cells (erythrocytes), read-out: Activity
Staphylococcus aureus [5] = assay: Antibacterial activity against methicillin-resistant Staphylococcus aureus isolate 2 after 16 to 18 hrs by broth microdilution method; assay type: functional
[6] = tested on: Staphylococcus epidermidis; assay: Bactericidal activity against methicillin-resistant Staphylococcus epidermidis ATCC 35984 after 24 hrs by calgary biofilm device-based assay; assay type: functional; details: ATCC 35984, 24 h
Staphylococcus aureus [7] = assay: Antibiofilm activity against methicillin-resistant Staphylococcus aureus BAA 1707 after 24 hrs by calgary biofilm device-based assay; assay type: functional
Enterococcus faecium [8] = assay: Bactericidal activity against vancomycin-resistant Enterococcus faecium ATCC 700221 after 24 hrs by calgary biofilm device-based assay; assay type: functional; details: ATCC 700221, 24 h
Staphylococcus aureus [9] = assay: Bactericidal activity against methicillin-resistant Staphylococcus aureus BAA 1707 after 24 hrs by calgary biofilm device-based assay; assay type: functional; details: BAA 1707, 24 h
[10] = tested on: Staphylococcus epidermidis; assay: Antibiofilm activity against methicillin-resistant Staphylococcus epidermidis ATCC 35984 after 24 hrs by calgary biofilm device-based assay; assay type: functional
Enterococcus faecium [11] = assay: Antibiofilm activity against vancomycin-resistant Enterococcus faecium ATCC 700221 after 24 hrs by calgary biofilm device-based assay; assay type: functional
Staphylococcus aureus [12] = assay: Bactericidal activity against methicillin-resistant Staphylococcus aureus isolate 2 after 24 hrs by calgary biofilm device-based assay; assay type: functional; details: isolate 2, 24 h

| SMILES | MIC (Enterococcus faecium [1]) [µM] | MIC [2] [µM] | MBEC (Staphylococcus aureus [3]) [µM] | hemolysis at 1 h, 200 µM [4] [%] | MIC (Staphylococcus aureus [5]) [µM] | MBC [6] [µM] | MBEC (Staphylococcus aureus [7]) [µM] | MBC (Enterococcus faecium [8]) [µM] | MBC (Staphylococcus aureus [9]) [µM] | MBEC [10] [µM] | MBEC (Enterococcus faecium [11]) [µM] | MBC (Staphylococcus aureus [12]) [µM] |
| --- | --- | --- | --- | --- | --- | --- | --- | --- | --- | --- | --- | --- |
| CC(=O)NC[C@H]1CN(c2ccc(N3CCOCC3)c(F)c2)C(=O)O1 [LINEZOLID] | 3.13 (≈ 1.06 µg/mL) | 3.13 (≈ 1.06 µg/mL) | >2000 | ≤ 1 | 3.13 (≈ 1.06 µg/mL) |  |  |  |  |  |  |  |
| Cc1ccc2c(Br)cc(Br)c(O)c2n1 [BROQUINALDOL] | 2.35 (≈ 0.745 µg/mL) | 0.2 (≈ 0.0634 µg/mL) | 46.9 | ≤ 1 |  | 7.8 (≈ 2.47 µg/mL) | 31.3 | 3 (≈ 0.951 µg/mL) | 31.3 (≈ 9.92 µg/mL) | 3 | 2 | 23.5 (≈ 7.45 µg/mL) |
| Cc1nc2c(O)c(Br)cc(Br)c2cc1C(=O)N1CCOCC1 | > 100 | 50 (≈ 21.5 µg/mL) |  | ≤ 1 | 100 (≈ 43 µg/mL) |  |  |  |  |  |  |  |
| Oc1c(Br)cc(Br)c2ccc(-c3ccccc3)nc12 | > 100 |  |  | 1.9 | 25 (≈ 9.48 µg/mL) |  |  |  |  |  |  |  |
| Oc1c(Br)cc(Br)c2cc(Cc3ccccc3)cnc12 | 18.8 (≈ 7.39 µg/mL) | 3.13 (≈ 1.23 µg/mL) |  | 4.6 | 50 (≈ 19.7 µg/mL) |  |  |  |  |  |  |  |
| Cc1cnc2c(O)c(Br)cc(Br)c2c1 |  | 1.17 (≈ 0.371 µg/mL) | 46.9 | ≤ 1 | 3.13 (≈ 0.992 µg/mL) | 23.5 (≈ 7.45 µg/mL) |  | 7.8 (≈ 2.47 µg/mL) |  | 31.3 | 5.9 | 15.6 (≈ 4.94 µg/mL) |
| Cc1nc2c(O)c(Br)cc(Br)c2cc1C(=O)OCc1ccccc1 | 0.3 (≈ 0.135 µg/mL) | 0.1 (≈ 0.0451 µg/mL) | >1000 | 7.9 | 6.25 (≈ 2.82 µg/mL) | 46.9 (≈ 21.2 µg/mL) |  | 3.9 (≈ 1.76 µg/mL) |  | 15.6 | 1.5 | 375 (≈ 169 µg/mL) |
| Cc1nc2c(O)c(Br)cc(Br)c2cc1C(=O)O/C(=N\C1CCCCC1)NC1CCCCC1 | 25 (≈ 14.2 µg/mL) | 1.56 (≈ 0.885 µg/mL) |  | ≤ 1 | 12.5 (≈ 7.09 µg/mL) |  |  |  |  |  |  |  |
| Oc1c(Br)cc(Br)c2ccc(-c3ccccn3)nc12 | 25 (≈ 9.5 µg/mL) |  |  | ≤ 1 | 37.5 (≈ 14.3 µg/mL) |  |  |  |  |  |  |  |
| CCCCCCCCCC(=O)N[C@@H](Cc1c[nH]c2ccccc12)C(=O)N[C@@H](CC(N)=O)C(=O)N[C@@H](CC(=O)O)C(=O)N[C@@H]1C(=O)NCC(=O)N[C@@H](CCCN)C(=O)N[C@@H](CC(=O)O)C(=O)N[C@H](C)C(=O)N[C@@H](CC(=O)O)C(=O)NCC(=O)N[C@H](CO)C(=O)N[C@@H]([C@H](C)CC(=O)O)C(=O)N[C@@H](CC(=O)c2ccccc2N)C(=O)O[C@@H]1C [DAPTOMYCIN] |  | 12.5 (≈ 20.3 µg/mL) | >2000 |  |  |  |  |  |  |  |  | 62.5 (≈ 101 µg/mL) |
| CCc1cnc2c(O)c(Br)cc(Br)c2c1 | 12.5 (≈ 4.14 µg/mL) | 0.59 (≈ 0.195 µg/mL) | 188 | 2.4 | 6.25 (≈ 2.07 µg/mL) | 62.5 (≈ 20.7 µg/mL) |  | 31.3 (≈ 10.4 µg/mL) |  | 46.9 | 23.5 | 46.9 (≈ 15.5 µg/mL) |
| COC(=O)c1cc2c(Br)cc(Br)c(O)c2nc1C | 2.35 (≈ 0.881 µg/mL) | 0.3 (≈ 0.113 µg/mL) |  | 1.5 | 1.56 (≈ 0.585 µg/mL) |  |  |  |  |  |  |  |
| CCCCCCCCCCCC[N+](C)(C)CC[N+](C)(C)CC[N+](C)(C)CCCCCCCCCCCC | 2.35 | 2.35 | 125 | > 99 | 3.13 | 31.3 |  | 3 |  | 31.3 | 3 | 31.3 |
| CN[C@H](CC(C)C)C(=O)N[C@H]1C(=O)N[C@@H](CC(N)=O)C(=O)N[C@H]2C(=O)N[C@H]3C(=O)N[C@H](C(=O)N[C@H](C(=O)O)c4cc(O)cc(O)c4-c4cc3ccc4O)[C@H](O)c3ccc(c(Cl)c3)Oc3cc2cc(c3O[C@@H]2O[C@H](CO)[C@@H](O)[C@H](O)[C@H]2O[C@H]2C[C@](C)(N)[C@H](O)[C@H](C)O2)Oc2ccc(cc2Cl)[C@H]1O [VANCOMYCIN] | > 100 |  | >2000 | ≤ 1 |  |  | >2000 | > 200 | 3.9 (≈ 5.65 µg/mL) | >2000 | 200 | 3 (≈ 4.35 µg/mL) |
| Cc1nc2c(O)c(Br)cc(Br)c2cc1C(=O)NCc1ccccc1 | 25 (≈ 11.3 µg/mL) | 6.25 (≈ 2.81 µg/mL) | >1000 | 13 | 6.25 (≈ 2.81 µg/mL) |  |  |  |  |  |  | > 2000 |
| Cc1nc2c(O)c(Br)cc(Br)c2cc1C(=O)O | > 100 | 25 (≈ 9.02 µg/mL) |  | 2.5 | 50 (≈ 18 µg/mL) |  |  |  |  |  |  |  |
| CCCNC(=O)c1cc2c(Br)cc(Br)c(O)c2nc1C | 50 (≈ 20.1 µg/mL) | 12.5 (≈ 5.03 µg/mL) |  | 7 | 37.5 (≈ 15.1 µg/mL) |  |  |  |  |  |  |  |
| CCOC(=O)c1c(C)nc2c(O)c(Br)cc(Br)c2c1C | 4.69 (≈ 1.89 µg/mL) | 1.17 (≈ 0.472 µg/mL) |  | ≤ 1 | 6.25 (≈ 2.52 µg/mL) |  |  |  |  |  |  |  |
| CCc1nc2c(O)c(Br)cc(Br)c2cc1C | 0.78 (≈ 0.269 µg/mL) | 0.15 (≈ 0.0518 µg/mL) | >1000 | ≤ 1 | 6.25 (≈ 2.16 µg/mL) |  |  |  |  |  |  | > 1000 |
| Cc1nc2c(O)c(Br)cc(Br)c2cc1C(=O)c1ccccc1 | 0.78 (≈ 0.328 µg/mL) | 3.13 (≈ 1.32 µg/mL) | 23.5 | 2.5 | 0.59 (≈ 0.248 µg/mL) | 5.9 (≈ 2.48 µg/mL) | 3.9 | 46.9 (≈ 19.7 µg/mL) | 7.8 (≈ 3.28 µg/mL) | 1 | 23.5 | 15.6 (≈ 6.57 µg/mL) |
| CCOC(=O)c1cc2c(Br)cc(Br)c(O)c2nc1C | 0.78 (≈ 0.303 µg/mL) | 0.1 (≈ 0.0389 µg/mL) | 31.3 | 2.2 | 0.39 (≈ 0.152 µg/mL) | 93.8 (≈ 36.5 µg/mL) |  | 3 (≈ 1.17 µg/mL) |  | 23.5 | 2 | 31.3 (≈ 12.2 µg/mL) |
| CC(=O)c1cc2c(Br)cc(Br)c(O)c2nc1C | 25 (≈ 8.98 µg/mL) | 6.25 (≈ 2.24 µg/mL) | >1000 | 2.3 | 1.56 (≈ 0.56 µg/mL) |  |  |  |  |  |  | 250 (≈ 89.8 µg/mL) |

— ChEMBL document CHEMBL4251541, “Microwave-enhanced Friedländer synthesis for the rapid assembly of halogenated quinolines with antibacterial and biofilm eradication activities against drug resistant and tolerant bacteria” (Medchemcomm, 2017)
